In patent US12466807B2, “Salt and crystal form of a FAK inhibitor” (Amplia Therapeutics Limited, priority 2019, dated 2025):
Entries after “also recorded” stand apart in the source; their conditions may differ.

Legend:
Type in all cases: physicochemical
[1] = Salt disproportionation studies; details: for XRPD Result: solid after 24 h in deionized water
Method: Salt disproportionation studies were carried out as follows: • Approximately 10-20 mg of Formula I free base, L-tartrate Pattern 1 were weighed into HPLC vials. • 1 mL deionized water was then added to each vial and the vials capped and shaken at ambient temperature for 24 hours. • After this time, the samples were transferred to centrifuge tubes with nylon filters (0.22 μm) and centrifuged for approximately 15 minutes. The isolated solids were analyzed by XRPD and the filtrates analyzed by HPLC for concentration determination and the pH of all the filtrates were measured with a pH meter.

[2] = Thermodynamic solubility studies; details: for HPLC Conc: ca. 22° C.
Method: Thermodynamic Solubility Studies were carried out as follows: • Approximately 10 mg of Formula I free base Pattern 1 and L-tartrate Pattern 1, were weighed into a 1.5 mL screw-cap vial. The appropriate buffer system was added to create a slurry and the vials were shaken at ambient temperature (ca. 22° C.) for approximately 24 hours. • After this time, the slurries were transferred to centrifuge tubes containing nylon filters (0.22 μm) and filtered using a centrifuge for ca. 10 minutes. The isolated solids were then analyzed by XRPD and the filtrates measured by a pH meter and analyzed by HPLC for concentration.

[3] = Dynamic/gravimetric vapour sorption (DVS/GVS) hygroscopicity; details: for Hygroscopicity, mass uptake (DVS/GVS): at 90% R.H., 25° C.
Method: Approximately 10-20 mg of sample was placed into a mesh vapour sorption balance pan and loaded into the DVS-1 dynamic vapour sorption balance by Surface Measurement Systems. The sample was subjected to a ramping profile from 40-90% relative humidity (RH) at 10% increments, maintaining the sample at each step until a stable weight had been achieved (dm/dt 0.004%, minimum step length 30 minutes, maximum step length 500 minutes) at 25° C. After completion of the sorption cycle, the sample was dried using the same procedure to 0% RH and then a second sorption cycle back to 40% RH. Two cycles were performed. The weight change during the sorption/desorption cycles were plotted, allowing for the hygroscopic nature of the sample to be determined. XRPD analysis was then carried out on any solid retained.
Approximately 10-20 mg of sample was placed into a mesh vapour sorption balance pan and loaded into an IGASorp Moisture Sorption Analyser balance by Hiden Analytical. The sample was subjected to a ramping profile from 40-90% relative humidity (RH) at 10% increments, maintaining the sample at each step until a stable weight had been achieved (98% step completion, minimum step length 30 minutes, maximum step length 60 minutes) at 25° C. After completion of the sorption cycle, the sample was dried using the same procedure to 0% RH, and finally taken back to the starting point of 40% RH. Two cycles were performed. The weight change during the sorption/desorption cycles were plotted, allowing for the hygroscopic nature of the sample to be determined.

Hydration studies = details: 24 h
Method: Hydration studies were carried out as follows: • Approximately 10-20 mg of Formula I free base, L-tartrate Pattern 1, were weighed into 1.5 mL vials. • Water/acetone mixtures were prepared to give water activities of 0.281, 0.637 and 0.888. • The appropriate water/acetone mixture was then added to each vial to form a slurry and the vials capped and shaken at ambient temperature for 24 hours. • After this time, the slurries were transferred to centrifuge tubes containing nylon filters (0.22 μm) and centrifuged for 15 minutes. The isolated solids were analyzed by XRPD.

7-day stability study = details: for XRPD / HPLC Purity: 1 week; for HPLC Purity: input purity 99.8%
Method: 7-day stability tests were carried out as follows: • Approximately 10-20 mg of Formula I L-tartrate Pattern 1 was placed at either 40° C./75% RH, 80° C. or under ambient light and temperature for 1 week. The resulting solids were analyzed by XRPD to assess the physical stability and HPLC to assess the chemical stability.

[4] = listed as Formula I L-tartrate Pattern 1

Salt disproportionation ([1]; deionized water, 24 h): no evidence of disproportionation | Water pH Post-24 h ([1]; deionized water, 24 h, ambient temperature, listed as L-Tartrate Pattern 1): 3.43 | XRPD Result [1, 4]: L-tartrate Pattern 2 | XRPD Result ([1]; listed as L-Tartrate Pattern 1): L-Tartrate Pattern 2 | Thermodynamic Solubility ([2]; Water): 900 µg/mL | Thermodynamic Solubility ([2]; pH 1.0): 300 µg/mL | HPLC Conc ([2]; pH 1.0, 24 h slurry): 0.3 mg/mL | XRPD Result ([2]; pH 1.0, solid after 24 h slurry, listed as L-Tartrate Pattern 1): Possible HCl salt | XRPD Result ([2]; pH 1.0, solid after 24 h slurry, listed as L-tartrate Pattern 1): possible HCl salt | pH Post-24 h Slurry ([2]; pH 1.0, listed as L-Tartrate Pattern 1): 1.87 | Thermodynamic Solubility ([2]; pH 4.5): 300 µg/mL | HPLC Conc ([2]; pH 4.5, 24 h slurry, listed as L-Tartrate Pattern 1): 0.3 mg/mL | XRPD Result ([2]; pH 4.5, solid after 24 h slurry, listed as L-Tartrate Pattern 1): Pattern 2 | pH Post-24 h Slurry ([2]; pH 4.5, listed as L-Tartrate Pattern 1): 3.99 | Thermodynamic Solubility ([2]; pH 6.8): 200 µg/mL | HPLC Conc ([2]; pH 6.8, 24 h slurry): 0.2 mg/mL | HPLC Conc ([2]; pH 6.8, 24 h slurry, listed as L-Tartrate Pattern 1): 0.2 mg/mL | XRPD Result ([2]; pH 6.8, solid after 24 h slurry, listed as L-Tartrate Pattern 1): Pattern 2 | pH Post-24 h Slurry ([2]; pH 6.8, listed as L-Tartrate Pattern 1): 4.43 | HPLC Conc ([2]; water, 24 h slurry, listed as L-Tartrate Pattern 1): 0.9 mg/mL | XRPD Result ([2]; water, solid after 24 h slurry, listed as L-Tartrate Pattern 1): Pattern 2 | pH Post-24 h Slurry ([2]; water, listed as L-Tartrate Pattern 1): 3.43 | Hygroscopicity, mass uptake (DVS/GVS) [3]: Uptake of 0.6 wt % | Hygroscopicity, mass uptake (DVS/GVS) [3, 4]: 0.6 wt % | Hygroscopic nature by GVS analysis ([3]; up to 90% RH): slightly hygroscopic | XRPD Result (Hydration studies; Water Activity 0.281, water/acetone): Pattern 1 | XRPD Result (Hydration studies; Water Activity 0.637, water/acetone): Pattern 1 | XRPD Result (Hydration studies; Water activity 0.888, water/acetone, listed as L-Tartrate Pattern 1): Pattern 2 (hydrate) | XRPD Result (Hydration studies; Water activity 0.888, water/acetone, listed as L-tartrate Pattern 1): L-tartrate Pattern 2 | XRPD (7-day stability study; 40° C./75% RH): Pattern 1 | HPLC Purity (7-day stability study; 40° C./75% RH): 99.6 % Area | XRPD (7-day stability study; 80° C.): Pattern 1 | HPLC Purity (7-day stability study; 80° C.): 99.3 % Area | XRPD (7-day stability study; Ambient temperature and light): Pattern 1 | HPLC Purity (7-day stability study; Ambient temperature and light): 99.5 % Area | Stability under accelerated conditions (7-day stability study; one week, ambient temperature and light, 40° C./75% RH and 80° C.): considered stable
SMILES: COc1cc(C2CCN(C)CC2)ccc1Nc1ncc(C(F)(F)F)c(CCc2ccccc2CC(N)=O)n1 [L-Tartrate]
Post-GVS XRPD ([3]; after GVS humidity cycles, listed as Formula I L-tartrate Pattern 1): no changes to the XRPD pattern; also recorded: no change in form
